The record followed here is ChEMBL document CHEMBL1201862, “PubChem BioAssay data set” (2004).

Among the test systems are LOX IMVI; DU-145; SNB-19; HOP-92; NCI-H23; HCC 2998; SK-MEL-28; Hs-578T; TK-10; PC-3; CAKI-1; UO-31; NCI-H460; UACC-62; Malme-3M; OVCAR-5; SNB-75; MOLT-4; SR; SF-539.
Test in all cases: NCI-60 cell line screen, 48 h

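Results reflect a 48-hour exposure of cells in 96-well plates to compound at five concentrations. GI50: concentration for 50% inhibition of growth.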 Calls of active or inactive are those of the source. No stated cut-off is given here; in the data, active = GI50 up to about 1.1 µM and inactive = higher.

Turning to `COP(C)(=O)C1=CCN(C(=O)OCC[Si](C)(C)C)CC1` (centres undefined), the GI50 in the experiment on LOX IMVI, with DU-145, in the experiment on SNB-19, in the experiment on HOP-92, in the experiment on NCI-H23 and in the experiment on HCC 2998 was > 100 µM (inactive) each time. Further, the GI50 with SK-MEL-28, in the experiment with Hs-578T, with TK-10, with PC-3, with CAKI-1 and with UO-31 was > 100 µM (inactive) each time. For the same compound, the GI50 in the experiment on NCI-H460, with UACC-62, in the experiment with Malme-3M, in the experiment on OVCAR-5 and with SNB-75 was > 100 µM (inactive) throughout.
Consider `CC1OC(O[C@H]2C3C=CO[C@@H](OC4OC(CO)C(O)C(O)C4O)C3[C@@]3(COC(=O)/C=C/c4ccccc4)O[C@@H]23)C(O)C(O)C1O` (some centres undefined), for which the GI50 with LOX IMVI, in the experiment with DU-145, with SNB-19, in the experiment with HOP-92, in the experiment with NCI-H23 and in the experiment on HCC 2998 was > 100 µM (inactive) throughout. Further, the GI50 with SK-MEL-28, in the experiment with Hs-578T, in the experiment with TK-10, with PC-3, in the experiment with CAKI-1 and with UO-31 was > 100 µM (inactive) throughout. Moreover, the GI50 in the experiment on NCI-H460, in the experiment on MOLT-4, in the experiment on UACC-62, in the experiment on Malme-3M, in the experiment with OVCAR-5 and with SNB-75 was > 100 µM (inactive) in each case.
Consider `O=C(n1[nH]c(=O)n(-c2ccc([N+](=O)[O-])cc2)c1=O)C(Cl)(Cl)Cl`, for which the GI50 in the experiment with LOX IMVI, with DU-145, with SNB-19, in the experiment with SR, in the experiment with NCI-H23 and in the experiment on HCC 2998 was > 75 µM (inactive) in each case. Further, the GI50 with SK-MEL-28, in the experiment on Hs-578T, with TK-10, in the experiment on PC-3, in the experiment on CAKI-1 and with UO-31 was > 75 µM (inactive) throughout. The GI50 in the experiment with NCI-H460, with MOLT-4, with UACC-62, in the experiment with Malme-3M, in the experiment with OVCAR-5 and in the experiment on SNB-75 was > 75 µM (inactive) throughout.
As for `O=C1N(c2ccccc2)C(=S)/C(=C/c2ccc(Cl)cc2)N1c1ccc(Cl)cc1`, the GI50 in the experiment on LOX IMVI was 22.2 µM (inactive); in the experiment on DU-145 it was 53 µM (inactive); with SNB-19 it was 48.4 µM (inactive); with SF-539, 21.1 µM (inactive); in the experiment with SR, 0.571 µM (active); with NCI-H23, 44.3 µM (inactive). Further, the GI50 in the experiment with HCC 2998 was > 100 µM (inactive); with SK-MEL-28 it was 34.8 µM (inactive); in the experiment with Hs-578T it was 27 µM (inactive); with TK-10, 26.7 µM (inactive); in the experiment on PC-3, > 100 µM (inactive); in the experiment with CAKI-1, > 100 µM (inactive). The GI50 is 28.5 µM (inactive) with UO-31; > 100 µM (inactive) in the experiment on NCI-H460; 0.923 µM (active) with MOLT-4; 15.8 µM (inactive) in the experiment on UACC-62; 20.6 µM (inactive) in the experiment on Malme-3M; 78.3 µM (inactive) in the experiment with OVCAR-5. In addition, the GI50 in the experiment on SNB-75 is 12.6 µM (inactive).
In the case of `O=C1C(Cl)=C(Cl)C(Cl)(Cl)C(Cl)C1(Cl)Cl` (centres undefined), the GI50 with LOX IMVI is 19.4 µM (inactive); with DU-145, 27.4 µM (inactive); in the experiment with SNB-19, 22.4 µM (inactive); in the experiment with SF-539, 17.5 µM (inactive); with HOP-92, 16.9 µM (inactive); with NCI-H23, 21.9 µM (inactive). For the same compound, the GI50 with HCC 2998 was 17.3 µM (inactive); with SK-MEL-28, 23.5 µM (inactive); with Hs-578T, 21.3 µM (inactive); with TK-10 it was 19.5 µM (inactive); in the experiment with PC-3, 25 µM (inactive); in the experiment on UO-31, 15.8 µM (inactive). The GI50 in the experiment with NCI-H460 was 19.9 µM (inactive); with UACC-62, 16.7 µM (inactive); in the experiment with Malme-3M it was 18.8 µM (inactive); with OVCAR-5 it was 23.2 µM (inactive); in the experiment with SNB-75 it was 21.5 µM (inactive).
Regarding `O=C(O)C12C3CCC(CC3)C1(C(=O)O)C1CCC2C1` (centres undefined), the GI50 is > 100 µM (inactive) in the experiment on LOX IMVI; > 100 µM (inactive) in the experiment on DU-145; > 100 µM (inactive) in the experiment on SNB-19; > 100 µM (inactive) in the experiment with SF-539; < 0.01 µM (active) in the experiment on SR; > 100 µM (inactive) with NCI-H23. The GI50 in the experiment on HCC 2998, with SK-MEL-28, in the experiment on Hs-578T, in the experiment on TK-10, with PC-3 and in the experiment with CAKI-1 was > 100 µM (inactive) each time. Besides, the GI50 in the experiment with UO-31, with NCI-H460, in the experiment with MOLT-4, in the experiment on UACC-62, with Malme-3M and in the experiment with OVCAR-5 was > 100 µM (inactive) throughout. Further, the GI50 in the experiment on SNB-75 is > 100 µM (inactive).
As for `CC1CCC(C(C)C2C(O)CC3C4CC=C5CC(O)CCC5(C)C4CCC32C)NC1` (centres undefined), the GI50 in the experiment with LOX IMVI was 21.3 µM (inactive); in the experiment with DU-145, 69.8 µM (inactive); in the experiment on SNB-19 it was 25.7 µM (inactive); with SF-539, 34.2 µM (inactive); in the experiment on HOP-92, 23.7 µM (inactive); in the experiment on NCI-H23 it was 36.9 µM (inactive). Also, the GI50 is 11.9 µM (inactive) in the experiment with HCC 2998; > 100 µM (inactive) in the experiment with SK-MEL-28; 35.9 µM (inactive) with Hs-578T; 14.5 µM (inactive) in the experiment on TK-10; 26.9 µM (inactive) in the experiment on PC-3; 41.4 µM (inactive) in the experiment on UO-31. Moreover, the GI50 was 48 µM (inactive) in the experiment with NCI-H460; 8.38 µM (inactive) with MOLT-4; 49.5 µM (inactive) in the experiment on UACC-62; 20.6 µM (inactive) in the experiment with Malme-3M; 89.7 µM (inactive) with OVCAR-5; 28.2 µM (inactive) in the experiment with SNB-75.
For the compound `COc1ccc(/C=C2\CCC(CNc3ccc(OC)cc3)C2=O)cc1` (centres undefined), the GI50 in the experiment on LOX IMVI was 12.9 µM (inactive); in the experiment on DU-145 it was 39.1 µM (inactive); in the experiment with SNB-19, > 42.6 µM (inactive); in the experiment on SF-539, 20.4 µM (inactive); in the experiment on HOP-92 it was 18.9 µM (inactive); in the experiment on NCI-H23, 14.6 µM (inactive). For the same compound, the GI50 is 21.2 µM (inactive) in the experiment on HCC 2998; 18.9 µM (inactive) in the experiment on SK-MEL-28; 35.4 µM (inactive) with Hs-578T; 15.6 µM (inactive) with TK-10; 16.8 µM (inactive) in the experiment on PC-3; 18.7 µM (inactive) in the experiment on CAKI-1. For the same compound, the GI50 is 17.9 µM (inactive) with UO-31; 47.8 µM (inactive) with NCI-H460; 17.1 µM (inactive) in the experiment with UACC-62; 22.6 µM (inactive) in the experiment with Malme-3M; 18.5 µM (inactive) in the experiment on OVCAR-5; 31.1 µM (inactive) in the experiment with SNB-75.
On to `O=C(O)Cc1ccc2c(c1)/C(=C1/Nc3ccccc3C1=O)C(=O)N2`, for which the GI50 in the experiment on LOX IMVI is 20 µM (inactive); in the experiment on DU-145, 49.9 µM (inactive); in the experiment with SNB-19, 66.2 µM (inactive); with SR, 21.9 µM (inactive); in the experiment on NCI-H23 it was 39.6 µM (inactive); in the experiment on HCC 2998 it was 36.5 µM (inactive). Further, the GI50 in the experiment with SK-MEL-28 was 54.3 µM (inactive); in the experiment on Hs-578T it was 27.8 µM (inactive); in the experiment with TK-10 it was > 100 µM (inactive); in the experiment on PC-3 it was 28.6 µM (inactive); in the experiment on CAKI-1, 24.8 µM (inactive); with UO-31, 49 µM (inactive). Besides, the GI50 is 56.2 µM (inactive) in the experiment with NCI-H460; 25.8 µM (inactive) in the experiment on MOLT-4; 24.4 µM (inactive) with UACC-62; 27.4 µM (inactive) in the experiment with Malme-3M; > 100 µM (inactive) with OVCAR-5; 26.1 µM (inactive) with SNB-75.
With `CC(C)(C)CN1[C@@H]2CCCC[C@H]2N(CC(C)(C)C)P1(=O)C(O)/C=C/c1ccccc1` (some centres undefined), the GI50 in the experiment with LOX IMVI is 18.7 µM (inactive); with DU-145 it was 58.1 µM (inactive); with SNB-19, 26.8 µM (inactive); in the experiment with HOP-92, 28.8 µM (inactive); with NCI-H23 it was 56.6 µM (inactive); with HCC 2998, 28.5 µM (inactive). Further, the GI50 in the experiment with SK-MEL-28 was 76.7 µM (inactive); in the experiment on Hs-578T, 29.9 µM (inactive); with TK-10, 50.4 µM (inactive); in the experiment with PC-3, 37.8 µM (inactive); in the experiment with CAKI-1, 59.8 µM (inactive); in the experiment with UO-31 it was 29.5 µM (inactive). For the same compound, the GI50 in the experiment with NCI-H460 is 26.2 µM (inactive); in the experiment on MOLT-4 it was 35.5 µM (inactive); in the experiment on UACC-62 it was 35.2 µM (inactive); with Malme-3M it was 38.5 µM (inactive); with OVCAR-5, 50.4 µM (inactive); in the experiment on SNB-75, 21.3 µM (inactive).
For the compound `CCOC(=O)C12OC(CCC1=O)C(C(=O)OC)=C2C(=O)OC` (centres undefined), the GI50 in the experiment on LOX IMVI, with DU-145, with SNB-19, in the experiment with SF-539, in the experiment with SR and with NCI-H23 was > 10 µM (inactive) in each case. In addition, the GI50 with HCC 2998, in the experiment with SK-MEL-28, in the experiment on Hs-578T, in the experiment on TK-10, in the experiment with PC-3 and in the experiment on CAKI-1 was > 10 µM (inactive) throughout. The GI50 in the experiment on UO-31, in the experiment with NCI-H460, in the experiment with MOLT-4, in the experiment with UACC-62, in the experiment with Malme-3M and in the experiment on OVCAR-5 was > 10 µM (inactive) throughout. The GI50 in the experiment with SNB-75 is 2.26 µM (inactive).
